Source: patent US8334313B2, “Ureido substituted benzoic acid compounds and their use for nonsense suppression and the treatment of disease” (PTC Therapeutics, Inc., priority 2002, dated 2012)

test system: luciferase reporter construct containing a UGA premature termination codon; assay: cell-based luciferase reporter assay (nonsense suppression / readthrough); set-up: key: *****: both extremely high potency and extremely high efficacy of protein synthesis; ****: extremely high potency of protein synthesis and very high efficacy; ****: very high potency of protein synthesis and extremely high efficacy; ***: both very high potency and very high efficacy of protein synthesis; **: very high potency of protein synthesis and significant efficacy; **: significant potency of protein synthesis and very high efficacy; *: significant potency and efficacy of protein synthesis; conditions: ranking combining potency and efficacy of protein synthesis; UGA luciferase reporter stably transfected in 293T Human Embryonic Kidney cells
Description: Activity measurements in Table I were performed in a cell-based luciferase reporter assay (as described in Section 4.2) comprising a luciferase reporter construct containing a UGA premature termination codon that was stably transfected in 293T Human Embryonic Kidney cells. A small molecule (3-[3-(4-Isopropyl-phenyl)-2,5-dioxoimidazolidin-1-yl]-benzoic acid) known to allow readthrough of premature termination codons, was used as an internal standard. Activity measurements are based on the qualitative relation between the minimum concentration of compound required to produce a given protein in a cell (potency) and the maximum amount of protein produced by the cell (efficacy). Potency and efficacy activities are ranked as either extremely high, very high or significant.
The test compounds identified in the nonsense suppression assay (for convenience referred to herein as a “lead” compound) can be tested for biological activity using host cells containing or engineered to contain the target RNA element coupled to a functional readout system. For example, the lead compound can be tested in a host cell engineered to contain the RNA with the premature translation termination codon controlling the expression of a reporter gene. In this example, the lead compounds are assayed in the presence or absence of the RNA with the premature translation termination codon. Compounds that modulate premature translation termination and/or nonsense-mediated mRNA decay in vivo will result in increased expression of the full-length gene, i.e., past the premature termination codon. Alternatively, a phenotypic or physiological readout can be used to assess activity of the target RNA with the premature translation termination codon in the presence and absence of the lead compound. Both the in vitro and in vivo nonsense suppression assays used herein and as described in International Patent Publication WO 01/44516, which is incorporated by reference in its entirety, can be used to identify lead compounds can also be used to determine an EC50 for the lead compounds.
A stable cell line harboring the […] nonsense-containing luciferase gene is treated with a test compound. Cells are grown in standard medium supplemented with 1% penicillin-streptomycin (P/S) and 10% fetal bovine serum (FBS) to 70% confluency and split 1:1 the day before treatment. The next day, cells are trypsinized and 40,000 cells are added to each well of a 96-well tissue culture dish. Serial dilutions of each compound are prepared to generate a six-point dose response curve spanning 2 logs ([…]). The final concentration of the DMSO solvent remains constant at 1% in each well. Cells treated with 1% DMSO serve as the background standard, and cells treated with gentamicin serve as a positive control.

Q: For `O=C(O)c1cccc(N2CCN(c3ccc(I)cc3)C2=O)c1` [Compound 43, 3-[3-(4-Iodo-phenyl)-2-oxo-imidazolidin-1-yl]-benzoic acid], which Activity is on record?
A: The Activity was “*****”.

Q: For `O=C(O)c1cccc(N2CCN(c3ccc(N4CCCC4)cc3)C2=O)c1` [Compound 44, 3-[2-Oxo-3-(4-pyrrolidin-1-yl-phenyl)-imidazolidin-1-yl]-benzoic acid], which Activity is on record?
A: The Activity was “****”.

Q: With `O=C(O)c1cccc(N2CCN(c3ccc(C(F)(F)F)cc3)C2=O)c1` [Compound 45, 3-[2-Oxo-3-(4-trifluoromethyl-phenyl)-imidazolidin-1-yl]-benzoic acid] as the compound, how does the Activity read?
A: Its Activity is “*****”.

Q: With `O=C(O)c1cccc(N2CCN(c3ccc(-n4cccc4)cc3)C2=O)c1` [Compound 46, 3-[2-Oxo-3-(4-pyrrol-1-yl-phenyl)-imidazolidin-1-yl]-benzoic acid] as the compound, how does the Activity read?
A: Its Activity is “*****”.

Q: Which Activity does the source give for `CN(C)c1ccc(N2CCN(c3cccc(C(=O)O)c3)C2=O)cc1` [Compound 47, 3-[3-(4-Dimethylamino-phenyl)-2-oxo-imidazolidin-1-yl]-benzoic acid] here?
A: Its Activity is “*****”.

Q: For `Cc1ccc(N2CCN(c3cccc(C(=O)O)c3)C2=O)cc1` [Compound 48, 3-(2-Oxo-3-p-tolyl-imidazolidin-1-yl)-benzoic acid], which Activity is on record?
A: The Activity was “*****”.

Q: Which Activity does the source give for `COc1ccc(N2CCN(c3cccc(C(=O)O)c3)C2=O)cc1` [Compound 49, 3-[3-(4-Methoxy-phenyl)-2-oxo-imidazolidin-1-yl]-benzoic acid] here?
A: The Activity was “****”.

Q: How did the Activity turn out when `O=C(O)c1cccc(N2CCN(c3ccc4c(c3)OC(F)(F)O4)C2=O)c1` [Compound 50, 3-[3-(2,2-Difluoro-benzo[1,3]dioxol-5-yl)-2-oxo-imidazolidin-1-yl]-benzoic acid] was run?
A: Its Activity is “****”.

Q: Which Activity does the source give for `O=C(O)c1cccc(N2CCN(c3ccc4c(c3)OC(F)(F)C(F)(F)O4)C2=O)c1` [Compound 51, 3-[2-Oxo-3-(2,2,3,3-tetrafluoro-2,3-dihydro-benzo[1,4]dioxin-6-yl)-imidazolidin-1-yl]-benzoic acid] here?
A: Its Activity is “*****”.

Q: With `COc1ccc(C(=O)O)cc1N1CCN(c2ccc(C(F)(F)F)cc2)C1=O` [Compound 52, 4-Methoxy-3-[2-oxo-3-(4-trifluoromethyl-phenyl)-imidazolidin-1-yl]-benzoic acid] as the compound, how does the Activity read?
A: The Activity was “*”.

Q: Which Activity does the source give for `O=C(O)c1cc(N2CCN(c3ccc(C(F)(F)F)cc3)C2=O)ccc1F` [Compound 53, 2-Fluoro-5-[2-oxo-3-(4-trifluoromethyl-phenyl)-imidazolidin-1-yl]-benzoic acid] here?
A: The Activity was “****”.

Q: For `O=C(O)c1cc(N2CCN(c3ccc(C(F)(F)F)cc3)C2=O)ccc1Cl` [Compound 54, 2-Chloro-5-[2-oxo-3-(4-trifluoromethyl-phenyl)-imidazolidin-1-yl]-benzoic acid], which Activity is on record?
A: Its Activity is “****”.

Q: Which Activity does the source give for `O=C(O)c1ccc(F)c(N2CCN(c3ccc(C(F)(F)F)cc3)C2=O)c1` [Compound 55, 4-Fluoro-3-[2-oxo-3-(4-trifluoromethyl-phenyl)-imidazolidin-1-yl]-benzoic acid] here?
A: The Activity was “*”.

Q: Which Activity does the source give for `O=C(O)c1cccc(N2CCN(c3ccc(N4CCN(c5ccccc5)CC4)cc3)C2=O)c1` [Compound 56, 3-{2-Oxo-3-[4-(4-phenyl-piperazin-1-yl)-phenyl]-imidazolidin-1-yl}-benzoic acid] here?
A: The Activity was “*”.

Q: `COc1ccc(N2CCN(c3ccc(C(F)(F)F)cc3)C2=O)cc1C(=O)O` [Compound 57, 2-Methoxy-5-[2-oxo-3-(4-trifluoromethyl-phenyl)-imidazolidin-1-yl]-benzoic acid] was tested. Which Activity did it give?
A: Its Activity is “*”.

Q: How did the Activity turn out when `O=C(O)c1cccc(N2CCN(c3ccc(C(F)(F)F)cc3)C2=O)c1F` [Compound 58, 2-Fluoro-3-[2-oxo-3-(4-trifluoromethyl-phenyl)-imidazolidin-1-yl]-benzoic acid] was run?
A: The Activity was “**”.

Q: `O=C(O)c1cccc(N2CCN(c3ccc(N4CCCCC4)cc3)C2=O)c1` [Compound 59, 3-[2-Oxo-3-(4-piperidin-1-yl-phenyl)-imidazolidin-1-yl]-benzoic acid] was tested. Which Activity did it give?
A: The Activity was “****”.

Q: `CC(C)c1ccc(N2CCN(c3cccc(C(=O)O)c3)C2=S)cc1` [Compound 60, 3-[3-(4-Isopropyl-phenyl)-2-thioxo-imidazolidin-1-yl]-benzoic acid] was tested. Which Activity did it give?
A: Its Activity is “****”.

Q: With `O=C(O)c1cccc(N2CCN(c3ccc(OCC(=O)N4CCN(c5ccccc5)CC4)cc3)C2=O)c1` [Compound 61, 3-(2-Oxo-3-{4-[2-oxo-2-(phenyl-piperazin-1-yl)-ethoxy]-phenyl}-imidazolidin-1-yl)-benzoic acid] as the compound, how does the Activity read?
A: Its Activity is “*”.

Q: `CC1(C)CN(c2ccc(OC(F)(F)F)cc2)C(=O)N1c1cccc(C(=O)O)c1` [Compound 62, 3-[5,5-Dimethyl-2-oxo-3-(4-trifluoromethoxy-phenyl)-imidazolidin-1-yl]-benzoic acid] was tested. Which Activity did it give?
A: The Activity was “*”.

Q: For `O=C(O)c1cccc(N2CCN(c3ccc(F)c(C(F)(F)F)c3)C2=O)c1` [Compound 63, 3-[3-(4-Fluoro-3-trifluoromethyl-phenyl)-2-oxo-imidazolidin-1-yl]-benzoic acid], which Activity is on record?
A: The Activity was “****”.

Q: Which Activity does the source give for `O=C(O)c1cccc(N2CCN(c3cccc(OC(F)(F)F)c3)C2=O)c1` [Compound 64, 3-[2-Oxo-3-(3-trifluoromethoxy-phenyl)-imidazolidin-1-yl]-benzoic acid] here?
A: Its Activity is “****”.

Q: `O=C(O)c1cccc(N2CCN(c3ccc(F)c(F)c3)C2=O)c1` [Compound 65, 3-[3-(3,4-Difluoro-phenyl)-2-oxo-imidazolidin-1-yl]-benzoic acid] was tested. Which Activity did it give?
A: Its Activity is “*****”.

Q: `O=C(O)c1cccc(N2CCN(c3cc(F)ccc3F)C2=O)c1` [Compound 67, 3-[3-(2,5-Difluoro-phenyl)-2-oxo-imidazolidin-1-yl]-benzoic acid] was tested. Which Activity did it give?
A: Its Activity is “**”.

Q: `O=C(O)c1cccc(N2CCN(c3ccccc3F)C2=O)c1` [Compound 68, 3-[3-(2-Fluoro-phenyl)-2-oxo-imidazolidin-1-yl]-benzoic acid] was tested. Which Activity did it give?
A: The Activity was “***”.

Q: Which Activity does the source give for `O=C(O)c1cccc(N2CCN(c3cccc(F)c3)C2=O)c1` [Compound 69, 3-[3-(3-Fluoro-phenyl)-2-oxo-imidazolidin-1-yl]-benzoic acid] here?
A: The Activity was “*****”.

Q: `O=C(O)c1cccc(N2CCN(c3ccc(F)cc3)C2=O)c1` [Compound 70, 3-[3-(4-Fluoro-phenyl)-2-oxo-imidazolidin-1-yl]-benzoic acid] was tested. Which Activity did it give?
A: The Activity was “*****”.

Q: For `Cc1ccc(N2CCN(c3cccc(C(=O)O)c3)C2=O)cc1F` [Compound 71, 3-[3-(3-Fluoro-4-methyl-phenyl)-2-oxo-imidazolidin-1-yl]-benzoic acid], which Activity is on record?
A: Its Activity is “*****”.

Q: How did the Activity turn out when `O=C(O)c1cccc(N2CCN(c3ccc(C(F)(F)F)cn3)C2=O)c1` [Compound 72, 3-[2-Oxo-3-(5-trifluoromethyl-pyridin-2-yl)-imidazolidin-1-yl]-benzoic acid] was run?
A: The Activity was “****”.

Q: How did the Activity turn out when `O=C(O)c1cccc(N2CCN(c3cccs3)C2=O)c1` [Compound 73, 3-(2-Oxo-3-thiophen-2-yl-imidazolidin-1-yl)-benzoic acid] was run?
A: The Activity was “****”.

Q: How did the Activity turn out when `O=C(O)c1cccc(N2CCN(c3ccsc3)C2=O)c1` [Compound 74, 3-(2-Oxo-3-thiophen-3-yl-imidazolidin-1-yl)-benzoic acid] was run?
A: Its Activity is “****”.

Q: For `O=C(O)c1cccc(N2CCN(c3ccc(F)cc3F)C2=O)c1` [Compound 75, 3-[3-(2,4-Difluoro-phenyl)-2-oxo-imidazolidin-1-yl]-benzoic acid], which Activity is on record?
A: The Activity was “*”.

Q: For `CN1CCN(c2ccc(N3CCN(c4cccc(C(=O)O)c4)C3=O)cc2)CC1` [Compound 76, 3-{3-[4-(4-Methyl-piperazin-1-yl)-phenyl]-2-oxo-imidazolidin-1-yl}-benzoic acid], which Activity is on record?
A: Its Activity is “*”.

Q: For `O=C(O)c1cccc(N2CCN(c3ccc(OCC(=O)N4CCOCC4)cc3)C2=O)c1` [Compound 77, 3-{3-[4-(2-Morpholin-4-yl-2-oxo-ethoxy)-phenyl]-2-oxo-imidazolidin-1-yl}-benzoic acid], which Activity is on record?
A: Its Activity is “*”.

Q: How did the Activity turn out when `CN1CCN(C(=O)COc2ccc(N3CCN(c4cccc(C(=O)O)c4)C3=O)cc2)CC1` [Compound 78, 3-(3-{4-[2-(4-Methyl-piperazin-1-yl)-2-oxo-ethoxy]-phenyl}-2-oxo-imidazolidin-1-yl)-benzoic acid] was run?
A: Its Activity is “*”.

Q: How did the Activity turn out when `O=C(O)c1cccc(N2CCN(c3ccc(F)nc3)C2=O)c1` [Compound 79, 3-[3-(6-Fluoro-pyridin-3-yl)-2-oxo-imidazolidin-1-yl]-benzoic acid] was run?
A: The Activity was “*”.

Q: Which Activity does the source give for `Cc1ccc(C(=O)O)cc1N1CCN(c2ccc(C(F)(F)F)cc2)C1=O` [Compound 80, 4-Methyl-3-[2-oxo-3-(4-trifluoromethyl-phenyl)-imidazolidin-1-yl]-benzoic acid] here?
A: The Activity was “*”.
